“Also recorded” adds a separate entry of the source. Each block holds one molecule with its values, some of them ahead of it.
Experiments:
[1] = test system: Cyp24a1-deficient mice; assay: Rescue of impaired fracture healing in Cyp24a1-deficient mice (tibial osteotomy); type: in vivo, mouse; conditions: for effect on fracture repair: daily subcutaneous injection, 24,25-(OH)2D3 6.7 μg/kg, 1α,25-(OH)2D3 67 ng/kg
Description: FIG. 2: rescue of impaired fracture repair in Cyp24a1-deficient mice by treatment with 24,25-(OH)2D3. Osteotomy was performed and animals from each genotype were treated daily with vehicle, 1,25-(OH)2D3 (67 ng/kg) or 24,25-(OH)2D3 (6.7 ug/kg). The fracture callus was harvested at 14 days post-osteotomy and bone volume (BV) and tissue volume (TV) were measured by histomorphometry using the BioQuant Osteo image analysis software. WT, wild-type; cyp24a1−/−, mutant mice deficient for the Cyp24a1 gene.
A Cyp24a1-deficient mouse strain was used to determine the role of 24-hydroxylated vitamin D compounds during mammalian fracture repair. In wild-type mice, there is a significant increase in local expression of Cyp24a1 mRNA in the tibiae subjected to an osteotomy as compared to the unfractured contralateral tibiae. To identify the role of this change in gene expression on callus formation, four-month-old wild-type and Cyp24a1-deficient mice were subjected to a stabilized, transverse mid-diaphysial fracture of the tibia. Bones were collected at days 14 and 21 post-fracture and analyzed for histology and gene expression.
Control groups were injected with the vehicle (propylene glycol). […] Daily injection with 24,25-(OH)2D3 normalized the histological appearance of the callus and the measured static histomorphometric index (BV/TV, FIG. 2).

[2] = test system: chickens; conditions: chick fracture, treatment with metabolite alone; cited from earlier work
[3] = biological target: T1, 24-hydroxylated vitamin D compound receptor (FAM57B) (Mus musculus, UniProt Q7TNV1); assay: [3H]-24,25(OH)2D3 binding assay on membrane fractions of transfected COS-7 cells; conditions: for displacement of [3H]-24,25(OH)2D3 specific binding by excess cold compound: membrane fractions, excess of nonradioactive competitor; for specific binding of radioligand to receptor (saturation): membrane fractions of COS-7 cells expressing FAM57B
T1 construct: The full-length 24-hydroxylated vitamin D compound receptor was subcloned into the pcDNA3.1 expression vector; expressed in transfected cells; host or cells: COS-7 cells, stably transfected (pcDNA3.1)
T1 sequence (Q7TNV1 1-275 isoform Q7TNV1-3): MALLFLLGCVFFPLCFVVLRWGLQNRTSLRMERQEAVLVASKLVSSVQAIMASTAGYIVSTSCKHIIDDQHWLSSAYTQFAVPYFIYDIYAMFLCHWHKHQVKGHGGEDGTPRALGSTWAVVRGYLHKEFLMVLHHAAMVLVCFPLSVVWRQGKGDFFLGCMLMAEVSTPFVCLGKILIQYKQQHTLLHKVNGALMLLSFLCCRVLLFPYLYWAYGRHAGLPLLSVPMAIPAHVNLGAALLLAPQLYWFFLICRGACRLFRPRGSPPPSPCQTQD
Description: Membrane fractions of transfected COS-7 cells are prepared by differential centrifugation (66): cells are homogenized in buffer A (25 mM HEPES, 10 mM NaCl, 1 mM DTT at pH 7.4) and centrifuged at 20,000 g for 10 minutes. The resulting supernatant is then re-centrifuged at 20,000 g for 2×30 minutes. The resulting pellet is resuspended in buffer B (25 mM HEPES, 50 mM NaCl, 5 mM EDTA, 1 mM DTT at pH 7.4) and is used as a membrane fraction for binding assays.
Binding assays are performed on ice for 60 min in buffer B using [^3H]-24R,25(OH)2D3 (50 Ci/mmol; Amersham) in the presence or absence of a 200-fold excess of nonradioactive 24,25(OH)2D3. Bound and free ligand are separated by filtration on glass microfiber filters soaked in buffer B. The filters are rinsed with 10 ml of buffer B and are counted for radioactivity using a scintillation counter (36, 37, 66). Specific binding is then calculated as total binding minus non-specific binding measured in the presence of the excess of nonradioactive ligand.
Saturation binding analysis is performed using 100 μg of membrane fraction and 0.1 to 5 nM of [^3H]-24R,25(OH)2D3 and plotting specific binding as a function of ligand concentration (FIG. 4A). Saturation binding is repeated several times to minimize intra-assay variation and calculate binding affinity with accuracy. Affinity is determined using the saturation binding algorithm of the Prism software (GraphPad Software Inc., LaJolla, Calif.).
Binding specificity is further refined by performing competition binding assays on the membrane fractions with various nonradioactive vitamin D metabolites and other steroids (FIG. 4B). Binding is performed using 1 nM of [^3H]-24R,25(OH)2D3 and 100 μg of membrane fraction. Compete binding is done using 10-200 fold excess of 24,25(OH)2D3 (control displacement curve). Compete binding is also done using 10-200 fold excess of 25(OH)D3, 24S,25(OH)2D3 (the non-natural epimer of 24,25(OH)2D3), 1α(OH)D2, 1α,24(OH)D2, 1,24,25(OH)3D3, as well as dexamethasone, estradiol, and testosterone.

[4] = biological target: T2, 24-hydroxylated vitamin D compound receptor (Mus musculus, UniProt Q7TNV1); assay: Cellular dielectric spectroscopy (CellKey) in COS7 cells stably transfected with the receptor; type: cell-based; conditions: range of compound concentrations
T2 construct: The full-length 24-hydroxylated vitamin D compound receptor was subcloned into the pcDNA3.1 expression vector; expressed in transfected cells; host or cells: COS-7 cells, stably transfected (pcDNA3.1)
T2 sequence (Q7TNV1 1-275 isoform Q7TNV1-3): T1 sequence (Q7TNV1 1-275 isoform Q7TNV1-3)
Description: FIG. 4. Binding saturation and specificity of the 24-hydroxylated vitamin D compound receptor. A, B. The full-length 24-hydroxylated vitamin D compound receptor was subcloned into the pcDNA3.1 expression vector and expressed by stable transfection into COST cells. Membrane fractions were prepared by differential centrifugation and binding assays were performed using [^3H]-24,25(OH)2D3 in the presence or absence of an excess of nonradioactive 24,25(OH)2D3. Bound and free ligand were separated by filtration on glass microfiber filters. […] C, D. COS7 cells stably transfected with an expression vector for the 24-hydroxylated vitamin D compound receptor were plated in a cellular dielectric spectroscopy apparatus and changes in bioimpedance (dZiec), representative of binding, were measured over a range of compound concentrations. C. Response to vitamin D compounds. D. Response to steroids.
In certain embodiments of the present invention, cellular dielectric spectroscopy is used to ascertain binding specificity (124). The technology is based on applying electrical current to cells within a microplate format and measuring changes in impedance. […] The plate is installed onto the system to obtain a baseline reading. […]
Another method used to ascertain binding specificity is cellular dielectric spectroscopy (124). […] The plate is installed onto the system to obtain a baseline reading. […]

[5] = test system: ATF response element; assay: ATF response element luciferase reporter (Cignal AARE) in receptor-transfected COS7 cells; type: cell-based; conditions: saturating dose
Description: FIG. 5. Activation of the ATF response element following binding of 24,25(OH)2D to the 24-hydroxylated vitamin D compound receptor. COS7 cells stably transfected with an empty expression vector (vector) or with an expression vector for the 24-hydroxyvitamin D compound receptor (24,25(OH)2D rep) were transiently transfected with a reporter construct in which the luciferase reporter is under the control of an ATF response element. Transfected cells were then treated with ethanol (vehicle) or a saturating dose of 24,25(OH)2D. A renilla luciferase constitutive expression vector was co-transfected to assess efficiency of […]. Results (mean±SEM) are expressed as fold-induction over treatment with vehicle.
In certain embodiments of the present invention where the Cignal Finder reporter system is employed, COS-7 cells stably transfected with the 24-hydroxylated vitamin D compound receptor are seeded in 24-well tissue culture plates (Nunc, Roskilde, Denmark) at a density of 20,000 cells per well in growth medium (high-glucose DMEM with HEPES, 10% FBS, and 400 μg/ml of Geneticin). […] The activity of firefly and renilla luciferases are measured sequentially on a Sirius Luminometer (Berthold Detection Systems GmbH, Pforzheim, Germany). The specific luciferase activity is expressed as the ratio of firefly/renilla luciferase activity. […]

[6] = test system: wild-type mice; conditions: cited from earlier work
[7] = test system: rats; conditions: cited from earlier work
[8] = test system: rat; conditions: rat studies; cited from earlier work

Molecule: C=C1/C(=C\C=C2/CCC[C@]3(C)[C@@H]([C@H](C)CCCC(C)(C)O)CC[C@@H]23)C[C@@H](O)C[C@@H]1O [1α,25-(OH)2D3, reference compound]
effect on fracture repair [1]: no effect | healing (mechanical properties of healed bones) [2]: poor healing

Molecule: C=C1CC[C@H](O)C/C1=C/C=C1\CCC[C@]2(C)[C@@H]([C@H](C)CC[C@@H](O)C(C)(C)O)CC[C@@H]12 [24,25-(OH)2D3]
type X collagen mRNA expression ([1]; all time points studied): rescued and normalized | histological appearance of the callus ([1]; daily injection 6.7 μg/kg): normalized | static histomorphometric index (BV/TV) ([1]; daily injection 6.7 μg/kg, callus at 14 days post-osteotomy): normalized | effect on fracture repair [1]: rescue; also recorded: corrected | effect on fracture repair ([1]; listed as 24,25(OH)2D3): rescued | displacement of [3H]-24,25(OH)2D3 specific binding by excess cold compound [3]: can be displaced | changes in bioimpedance (dZiec), representative of binding [4]: specifically binds | changes in bioimpedance (dZiec), representative of binding ([4]; listed as 24R,25(OH)2D3): binding activity specific | luciferase reporter fold-induction over treatment with vehicle [5]: statistically significant

Molecule: CC(C)NCC(O)COc1cccc2ccccc12 (centres unmarked) [propranolol]
bone mass [6]: increase bone mass | bone defects [7]: repair bone defects

B1: parathyroid hormone (protein, UniProt P01270 32-115, looked up)
Parathyroid hormone: SVSEIQLMHNLGKHLNSMERVEWLRKKLQDVHNFVALGAPLAPRDAGSQRPRKKEDNVLVESHEKSLGEADKADVNVLTKAKSQ
modifications: Parathyroid hormone
notes: parathyroid hormone administered in rat fracture studies
fracture repair [8]: improve fracture repair

Now from value to molecule:

displacement of [3H]-24,25(OH)2D3 specific binding by excess cold compound [3]: not
Molecule: CC(=O)[C@H]1CC[C@H]2[C@@H]3CCC4=CC(=O)CC[C@]4(C)[C@H]3CC[C@]12C [progesterone]

specific binding of radioligand to receptor (saturation) [3]: specific and saturable | specific binding of radioligand to receptor (saturation) ([3]; listed as [^3H]-24,25(OH)2D3): saturable
Molecule: [^3H]-24R,25-(OH)2D3
